Measurements from patent US7803930B2, “Antisense modulation of apolipoprotein B-expression” (Isis Pharmaceuticals, Inc., priority 2002, dated 2010).
In the oligonucleotide strings, read from the 5' end, every base follows the letter of its sugar. An asterisk marks phosphorothioate; unmarked linkages are phosphodiester. Other units and linkages are bracketed, terminal groups are in braces. A string of capitals states the bases alone. e = 2'-O-(2-methoxyethyl) (MOE); [5mC] = 5-methylcytosine; d = 2'-deoxy (DNA)

test system: human apolipoprotein B mRNA; experiment: Inhibition of human apolipoprotein B mRNA levels in HepG2 cells, quantitative real-time PCR; assay type: cell-based; conditions: HepG2 cells; human apolipoprotein B mRNA; oligonucleotides targeting genomic sequence SEQ ID NO 334; averages from two experiments
Summary of the method: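 Apolipoprotein B transcript was quantified by one-step TaqMan RT-PCR, normalized to GAPDH or RiboGreen RNA, and expressed as percent inhibition against an untreated-sample standard curve. HepG2 cells were harvested 16-24 h after oligonucleotide exposure, which was delivered with 3.75 μg/mL Lipofectin over 4-7 h at 80% confluency.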

Row | Substance | % INHIB [%]
1 | 301067 (eT*e[5mC]*eT*eG*eA*dT*d[5mC]*dA*d[5mC]*d[5mC]*dA*dT*dA*d[5mC]*dA*eT*eT*eA*e[5mC]*eA; antisense) [compound 301067] | 45
2 | 301068 (eA*eT*eT*eT*e[5mC]*d[5mC]*d[5mC]*dA*d[5mC]*dT*dG*dG*dG*dT*dA*e[5mC]*eT*e[5mC]*eT*e[5mC]; antisense) [compound 301068] | 44
3 | 301069 (eG*eG*e[5mC]*eT*eG*dA*dA*dG*d[5mC]*d[5mC]*d[5mC]*dA*dT*dG*d[5mC]*eT*eG*eA*e[5mC]*eT; antisense) [compound 301069] | 44
4 | 301070 (eG*eT*eT*eG*eG*dA*d[5mC]*dA*dG*dT*d[5mC]*dA*dT*dT*d[5mC]*eT*eT*eT*eT*eG; antisense) [compound 301070] | 38
5 | 301071 (e[5mC]*eA*e[5mC]*eT*eT*dG*dT*dT*dG*dG*dA*d[5mC]*dA*dG*dT*e[5mC]*eA*eT*eT*e[5mC]; antisense) [compound 301071] | 48
6 | 301072 (eA*eT*eT*eT*eT*dA*dA*dA*dT*dT*dA*d[5mC]*dA*dG*dT*eA*eG*eA*eT*eA; antisense) [compound 301072] | 43
7 | 301073 (e[5mC]*eT*eG*eT*eT*d[5mC]*dT*d[5mC]*d[5mC]*dA*d[5mC]*d[5mC]*d[5mC]*dA*dT*eA*eT*e[5mC]*eA*eG; antisense) [compound 301073] | 37
8 | 301074 (eG*eA*eG*e[5mC]*eT*d[5mC]*dA*dT*dA*d[5mC]*d[5mC]*dT*dG*dT*d[5mC]*e[5mC]*e[5mC]*eA*eG*eA; antisense) [compound 301074] | 75
9 | 301075 (eT*eT*e[5mC]*eA*eA*dG*dG*dG*d[5mC]*d[5mC]*dA*d[5mC]*dT*dG*d[5mC]*eT*eA*eT*e[5mC]*eA; antisense) [compound 301075] | 52
10 | 301076 (e[5mC]*e[5mC]*eA*eG*eT*dA*dT*dT*dT*d[5mC]*dA*d[5mC]*dG*d[5mC]*d[5mC]*eA*eA*eT*e[5mC]*e[5mC]; antisense) [compound 301076] | 36
11 | 301077 (eG*eG*e[5mC]*eA*eG*dG*dA*dG*dG*dA*dA*d[5mC]*d[5mC]*dT*d[5mC]*eG*eG*eG*e[5mC]*eA; antisense) [compound 301077] | 55
12 | 301078 (eT*eT*eT*eT*eA*dA*dA*dA*dT*dT*dA*dG*dA*d[5mC]*d[5mC]*e[5mC]*eA*eA*e[5mC]*e[5mC]; antisense) [compound 301078] | 22
13 | 301079 (eT*eG*eA*e[5mC]*eT*dG*dT*dT*dT*dT*dA*dA*dA*dA*dT*eT*eA*eG*eA*e[5mC]; antisense) [compound 301079] | 20
14 | 301080 (e[5mC]*e[5mC]*e[5mC]*eA*eG*d[5mC]*dA*dA*dA*d[5mC]*dA*d[5mC]*dA*dG*dG*eT*eG*eA*eA*eG; antisense) [compound 301080] | 25
15 | 301081 (eG*eA*eG*eT*eG*dT*dG*dG*dT*d[5mC]*dT*dT*dG*d[5mC]*dT*eA*eG*eT*eG*e[5mC]; antisense) [compound 301081] | 46
16 | 301082 (antisense e[5mC]*eT*eA*eT*eG*d[5mC]*dA*dG*dA*dG*dT*dG*dT*dG*dG*eT*e[5mC]*eT*eT*eG) [compound 301082] | 41
17 | 301083 (antisense eA*eG*eA*eA*eG*dA*dT*dG*d[5mC]*dA*dA*d[5mC]*d[5mC]*dA*d[5mC]*eA*eT*eG*eT*eA) [compound 301083] | 29
18 | 301084 (antisense eA*e[5mC]*eA*e[5mC]*eG*dG*dT*dA*dT*d[5mC]*d[5mC]*dT*dA*dT*dG*eG*eA*eG*eG*eA) [compound 301084] | 49
19 | 301085 (antisense eT*eG*eG*eG*eA*d[5mC]*dT*dT*dA*d[5mC]*d[5mC]*dA*dT*dG*d[5mC]*e[5mC]*eT*eT*eT*eG) [compound 301085] | 11
20 | 301086 (antisense eG*eG*eT*eT*eT*dT*dG*d[5mC]*dT*dG*d[5mC]*d[5mC]*d[5mC]*dT*dA*e[5mC]*eA*eT*e[5mC]*e[5mC]) [compound 301086] | 30
21 | 301087 (antisense eA*e[5mC]*eA*eA*eG*dG*dA*dG*dT*d[5mC]*d[5mC]*dT*dT*dG*dT*eG*e[5mC]*eA*eG*eA) [compound 301087] | 40
22 | 301088 (antisense eA*eT*eG*eT*eT*d[5mC]*dA*d[5mC]*dT*dG*dA*dG*dA*d[5mC]*dA*eG*eG*e[5mC]*eT*eG) [compound 301088] | 41
23 | 301089 (antisense eG*eA*eA*eG*eG*dT*d[5mC]*d[5mC]*dA*dT*dG*dG*dT*dT*d[5mC]*eA*eT*e[5mC]*eT*eG) [compound 301089] | 0
24 | 301090 (antisense eA*eT*eT*eA*eG*dA*d[5mC]*dT*dG*dG*dA*dA*dG*d[5mC]*dA*eT*e[5mC]*e[5mC]*eT*eG) [compound 301090] | 39
25 | 301091 (antisense eG*eA*eG*eA*eT*dT*dG*dG*dA*dG*dA*d[5mC]*dG*dA*dG*e[5mC]*eA*eT*eT*eT) [compound 301091] | 35

Row | Substance | % INHIB [%]
26 | 301092 (antisense e[5mC]*eA*eT*eG*eA*d[5mC]*d[5mC]*dT*dA*d[5mC]*dT*dT*dG*dT*dA*eG*eG*eA*eG*eA) [compound 301092] | 22
27 | 301093 (antisense eT*eG*eG*eA*eT*dT*dT*dG*dG*dA*dT*dA*d[5mC]*dA*d[5mC]*eA*eA*eG*eT*eT) [compound 301093] | 42
28 | 301094 (antisense eA*e[5mC]*eT*e[5mC]*eA*dA*dT*dA*dT*dA*dT*dA*dT*dT*d[5mC]*eA*eT*eT*eG*eA) [compound 301094] | 22
29 | 301095 (antisense e[5mC]*eA*eA*eG*eG*dA*dA*dG*d[5mC]*dA*d[5mC]*dA*d[5mC]*d[5mC]*dA*eT*eG*eT*e[5mC]*eA) [compound 301095] | 38
30 | 301096 (antisense eA*eT*eA*e[5mC]*eT*dT*dA*dT*dT*d[5mC]*d[5mC]*dT*dG*dG*dT*eA*eA*e[5mC]*e[5mC]*eA) [compound 301096] | 24
31 | 301097 (antisense eG*eG*eT*eA*eG*d[5mC]*d[5mC]*dA*dG*dA*dA*d[5mC]*dA*d[5mC]*d[5mC]*eA*eG*eT*eG*eT) [compound 301097] | 50
32 | 301098 (antisense eA*e[5mC]*eT*eA*eG*dA*dG*dG*dT*dA*dG*d[5mC]*d[5mC]*dA*dG*eA*eA*e[5mC]*eA*e[5mC]) [compound 301098] | 34
33 | 301099 (antisense eA*e[5mC]*e[5mC]*eA*e[5mC]*d[5mC]*dT*dG*dA*d[5mC]*dA*dT*d[5mC]*dA*d[5mC]*eA*eG*eG*eT*eT) [compound 301099] | 24
34 | 301100 (antisense eT*eA*e[5mC]*eT*eG*dT*dG*dA*d[5mC]*d[5mC]*dT*dA*dT*dG*d[5mC]*e[5mC]*eA*eG*eG*eA) [compound 301100] | 55
35 | 301101 (antisense eG*eG*eA*eG*eG*dT*dG*d[5mC]*dT*dA*d[5mC]*dT*dG*dT*dT*eG*eA*e[5mC]*eA*eT) [compound 301101] | 42
36 | 301102 (antisense eT*e[5mC]*e[5mC]*eA*eG*dA*d[5mC]*dT*dT*dG*dT*d[5mC]*dT*dG*dA*eG*eT*e[5mC]*eT*eA) [compound 301102] | 47
37 | 301103 (antisense eT*e[5mC]*eT*eA*eA*dG*dA*dG*dG*dT*dA*dG*dA*dG*d[5mC]*eT*eA*eA*eA*eG) [compound 301103] | 7
38 | 301104 (antisense e[5mC]*e[5mC]*eA*eG*eA*dG*dA*dT*dG*dA*dG*d[5mC]*dA*dA*d[5mC]*eT*eT*eA*eG*eG) [compound 301104] | 38
39 | 301105 (antisense eG*eG*e[5mC]*e[5mC]*eA*dT*dG*dT*dA*dA*dA*dT*dT*dG*d[5mC]*eT*e[5mC]*eA*eT*e[5mC]) [compound 301105] | 7
40 | 301106 (antisense eA*eA*eA*eG*eA*dA*dA*d[5mC]*dT*dA*dT*d[5mC]*d[5mC]*dT*dG*eT*eA*eT*eT*e[5mC]) [compound 301106] | 12
41 | 301107 (antisense eT*eT*e[5mC]*eT*eT*dA*dG*dT*dA*d[5mC]*d[5mC]*dT*dG*dG*dA*eA*eG*eA*eT*eG) [compound 301107] | 23
42 | 301108 (antisense e[5mC]*eA*eT*eT*eA*dG*dA*dT*dA*d[5mC]*d[5mC]*dT*dG*dG*dA*e[5mC]*eA*e[5mC]*e[5mC]*eT) [compound 301108] | 29
43 | 301109 (antisense eG*eT*eT*eT*e[5mC]*dA*dT*dG*dG*dA*dA*d[5mC]*dT*d[5mC]*dA*eG*e[5mC]*eG*e[5mC]*eA) [compound 301109] | 44
44 | 301110 (antisense e[5mC]*eT*eG*eG*eA*dG*dA*dG*d[5mC]*dA*d[5mC]*d[5mC]*dT*dG*d[5mC]*eA*eA*eT*eA*eG) [compound 301110] | 35
45 | 301111 (antisense eT*eG*eA*eA*eG*dG*dG*dT*dA*dG*dA*dG*dA*dA*dA*eT*e[5mC]*eA*eT*eA) [compound 301111] | 9
46 | 301112 (antisense eG*eG*eA*eA*eA*d[5mC]*dT*d[5mC]*dA*d[5mC]*dT*dT*dG*dT*dT*eG*eA*e[5mC]*e[5mC]*eG) [compound 301112] | 25
47 | 301113 (antisense eA*eG*eG*eT*eG*d[5mC]*dA*dA*dG*dA*dT*dG*dT*dT*d[5mC]*e[5mC]*eT*e[5mC]*eT*eG) [compound 301113] | 46
48 | 301114 (antisense eT*eG*e[5mC]*eA*e[5mC]*dA*dG*dA*dG*dG*dT*dG*d[5mC]*dA*dA*eG*eA*eT*eG*eT) [compound 301114] | 16
49 | 301115 (antisense e[5mC]*eA*e[5mC]*eA*eA*dG*dA*dG*dT*dA*dA*dG*dG*dA*dG*e[5mC]*eA*eG*eA*eG) [compound 301115] | 39
50 | 301116 (antisense eG*eA*eT*eG*eG*dA*dT*dG*dG*dT*dG*dA*dG*dA*dA*eA*eT*eT*eA*e[5mC]) [compound 301116] | 33
